Test results published in PMC12298351, “Novel 3,19-(N-Phenyl-3-(4-fluorophenyl)-pyrazole) Acetal of Andrographolide Promotes Cell Cycle Arrest and Apoptosis in MDA-MB-231 Breast Cancer Cells” (Pharmaceuticals, 2025).

What was measured:
[1] = system: SNB-19; type: cell-based; conditions: SNB-19, CNS; for CC50: read-out: 50% lethal concentration (LC50)
[2] = system: TK-10; type: cell-based; conditions: TK-10, Renal; for CC50: read-out: 50% lethal concentration (LC50)
[3] = system: BT-549; type: cell-based; conditions: BT-549, Breast
[4] = system: CCRF-CEM; conditions: for CC50: read-out: 50% lethal concentration (LC50), Leukemia
[5] = system: HL-60(TB); conditions: for GI50 / Total growth inhibition (TGI): Leukemia; for CC50: read-out: 50% lethal concentration (LC50), Leukemia
[6] = system: SR; conditions: for CC50: read-out: 50% lethal concentration (LC50), Leukemia
[7] = system: EKVX; conditions: for Total growth inhibition (TGI): Non-Small Cell Lung; for GI50: Non-Small-Cell Lung; for CC50: read-out: 50% lethal concentration (LC50), Non-Small Cell Lung
[8] = system: HOP-62; conditions: for Total growth inhibition (TGI) / CC50: HOP-62, Non-Small Cell Lung; for GI50: HOP-62, Non-Small-Cell Lung; for CC50: read-out: 50% lethal concentration (LC50)
[9] = system: HOP-92; conditions: for GI50: HOP-92, Non-Small-Cell Lung
[10] = system: NCI-H226; conditions: for Total growth inhibition (TGI) / CC50: NCI-H226, Non-Small Cell Lung; for GI50: NCI-H226, Non-Small-Cell Lung; for CC50: read-out: 50% lethal concentration (LC50)
[11] = system: NCI-H460; conditions: for Total growth inhibition (TGI) / CC50: NCI-H460, Non-Small Cell Lung; for GI50: NCI-H460, Non-Small-Cell Lung; for CC50: read-out: 50% lethal concentration (LC50)
[12] = system: HCC-2998; conditions: HCC-2998, Colon
[13] = system: KM12; conditions: KM12, Colon
[14] = system: SW-620; conditions: SW-620, Colon
[15] = system: SF-268; conditions: SF-268, CNS; for CC50: read-out: 50% lethal concentration (LC50)
[16] = system: SF-295; conditions: SF-295, CNS; for CC50: read-out: 50% lethal concentration (LC50)
[17] = system: SNB-75; conditions: SNB-75, CNS; for CC50: read-out: 50% lethal concentration (LC50)
[18] = system: MDA-MB-435; conditions: MDA-MB-435, Melanoma; for CC50: read-out: 50% lethal concentration (LC50)
[19] = system: SK-MEL-2; conditions: SK-MEL-2, Melanoma
[20] = system: SK-MEL-5; conditions: SK-MEL-5, Melanoma; for CC50: read-out: 50% lethal concentration (LC50)
[21] = system: IGROV1; conditions: IGROV1, Ovarian; for CC50: read-out: 50% lethal concentration (LC50)
[22] = system: 786-0; conditions: 786-0, Renal; for CC50: read-out: 50% lethal concentration (LC50)
[23] = system: A498; conditions: A498, Renal; for CC50: read-out: 50% lethal concentration (LC50)
[24] = system: ACHN; conditions: for GI50 / Total growth inhibition (TGI): Renal; for CC50: read-out: 50% lethal concentration (LC50), Renal
[25] = system: CAKI-1; conditions: CAKI-1, Renal; for CC50: read-out: 50% lethal concentration (LC50)
[26] = system: RXF 393; conditions: RXF 393, Renal; for CC50: read-out: 50% lethal concentration (LC50)
[27] = system: SN12C; conditions: for GI50 / Total growth inhibition (TGI): Renal; for CC50: read-out: 50% lethal concentration (LC50), Renal
[28] = system: UO-31; conditions: UO-31, Renal; for CC50: read-out: 50% lethal concentration (LC50)
[29] = system: MCF7; conditions: MCF7, Breast; for CC50: read-out: 50% lethal concentration (LC50)
[30] = system: MDA-MB-231; conditions: for GI50: MDA-MB-231, Breast; for Total growth inhibition (TGI) / CC50: MDA-MB-231/ATCC, Breast; for CC50: read-out: 50% lethal concentration (LC50)
[31] = system: HS 578T; conditions: for GI50 / Total growth inhibition (TGI): Breast; for CC50: read-out: 50% lethal concentration (LC50), Breast
[32] = system: T-47D; conditions: for GI50 / Total growth inhibition (TGI): Breast; for CC50: read-out: 50% lethal concentration (LC50), Breast

## C=C1CCC2C3(C)COC(c4cn(-c5ccccc5)nc4-c4cccc(Br)c4)OC3CCC2(C)C1CC=C1C(=O)OCC1O (centres unmarked) [1e]
[1]
  GI50: 2.17 µM
  Total growth inhibition (TGI): 5.24 µM
  CC50: 17.2 µM
[2]
  GI50: 2.12 µM
  Total growth inhibition (TGI): 3.58 µM
  CC50: 40.4 µM
[3]
  GI50: 1.46 µM
  Total growth inhibition (TGI): 2.99 µM
[4]; Leukemia
  GI50: 0.7 µM
[4]
  CC50: > 100 µM
[5]
  GI50: 1.17 µM
  Total growth inhibition (TGI): 5.17 µM
  CC50: > 100 µM
[6]; Leukemia
  GI50: 1.77 µM
[6]
  CC50: > 100 µM
[7]
  Total growth inhibition (TGI): 5.16 µM
  GI50: 2.1 µM
  CC50: > 100 µM
[8]
  Total growth inhibition (TGI): 4.94 µM
  GI50: 2.08 µM
  CC50: > 100 µM
[9]; HOP-92, Non-Small Cell Lung
  Total growth inhibition (TGI): 3.41 µM
[9]
  GI50: 1.75 µM
[10]
  Total growth inhibition (TGI): 3.43 µM
  GI50: 1.75 µM
  CC50: 6.71 µM
[11]
  Total growth inhibition (TGI): 3.49 µM
  GI50: 1.78 µM
  CC50: 6.83 µM
[12]
  GI50: 1.72 µM
  Total growth inhibition (TGI): 3.33 µM
[13]
  GI50: 1.83 µM
  Total growth inhibition (TGI): 3.58 µM
[14]
  GI50: 1.72 µM
  Total growth inhibition (TGI): 3.64 µM
[15]
  GI50: 2.02 µM
  Total growth inhibition (TGI): 4.26 µM
  CC50: 8.98 µM
[16]
  GI50: 1.36 µM
  Total growth inhibition (TGI): 2.68 µM
  CC50: 5.3 µM
[17]
  GI50: 1.57 µM
  Total growth inhibition (TGI): 5.32 µM
  CC50: 22.9 µM
[18]
  GI50: 1.72 µM
  Total growth inhibition (TGI): 3.6 µM
  CC50: 7.51 µM
[19]
  GI50: 1.78 µM
  Total growth inhibition (TGI): 3.38 µM
[20]
  GI50: 1.54 µM
  Total growth inhibition (TGI): 2.88 µM
  CC50: 5.39 µM
[21]
  GI50: 2.2 µM
  Total growth inhibition (TGI): 4.83 µM
  CC50: > 100 µM
[22]
  GI50: 2.59 µM
  CC50: > 100 µM
[23]
  GI50: 4.33 µM
  Total growth inhibition (TGI): 8.1 µM
  CC50: 44 µM
[24]
  GI50: 1.61 µM
  Total growth inhibition (TGI): 16.8 µM
  CC50: 5.51 µM
[25]
  GI50: 1.42 µM
  Total growth inhibition (TGI): 2.98 µM
  CC50: 6.04 µM
[26]
  GI50: 1.18 µM
  Total growth inhibition (TGI): 2.93 µM
  CC50: 5.51 µM
[27]
  GI50: 1.57 µM
  Total growth inhibition (TGI): 2.55 µM
  CC50: 8.12 µM
[28]
  GI50: 1.45 µM
  Total growth inhibition (TGI): 5.34 µM
  CC50: 6.83 µM
[29]
  GI50: 1.77 µM
  Total growth inhibition (TGI): > 100 µM
  CC50: > 100 µM
[30]
  GI50: 1.68 µM
  Total growth inhibition (TGI): 3.23 µM
  CC50: 6.23 µM
[31]
  GI50: 1.94 µM
  Total growth inhibition (TGI): 5.19 µM
  CC50: > 100 µM
[32]
  GI50: 2.29 µM
  Total growth inhibition (TGI): 7.26 µM
  CC50: > 100 µM

## C=C1CCC2C3(C)COC(c4cn(-c5ccccc5)nc4-c4ccc(OC)cc4)OC3CCC2(C)C1CC=C1C(=O)OCC1O (centres unmarked) [1j]
[1]
  GI50: 2.46 µM
  Total growth inhibition (TGI): 7.42 µM
  CC50: 34.6 µM
[2]
  GI50: 1.95 µM
  Total growth inhibition (TGI): 4.13 µM
  CC50: 8.77 µM
[3]
  GI50: 1.65 µM
  Total growth inhibition (TGI): 3.23 µM
[4]; Leukemia
  GI50: 0.64 µM
  Total growth inhibition (TGI): > 100 µM
[4]
  CC50: > 100 µM
[5]
  GI50: 1.08 µM
  Total growth inhibition (TGI): 3.96 µM
  CC50: > 100 µM
[6]; Leukemia
  GI50: 1.74 µM
  Total growth inhibition (TGI): 5.21 µM
[6]
  CC50: > 100 µM
[7]
  Total growth inhibition (TGI): 4.49 µM
  GI50: 1.96 µM
  CC50: > 100 µM
[8]
  Total growth inhibition (TGI): 10.4 µM
  GI50: 2.65 µM
  CC50: 86.3 µM
[9]; HOP-92, Non-Small Cell Lung
  Total growth inhibition (TGI): 3.02 µM
[9]
  GI50: 1.47 µM
[9]; read-out: 50% lethal concentration (LC50), HOP-92, Non-Small Cell Lung
  CC50: 6.2 µM
[10]
  Total growth inhibition (TGI): 3.36 µM
  GI50: 1.72 µM
  CC50: 6.55 µM
[11]
  Total growth inhibition (TGI): 3.5 µM
  GI50: 1.74 µM
  CC50: 7.01 µM
[12]
  GI50: 1.7 µM
  Total growth inhibition (TGI): 3.19 µM
[13]
  GI50: 1.66 µM
  Total growth inhibition (TGI): 3.31 µM
[14]
  GI50: 1.69 µM
  Total growth inhibition (TGI): 3.8 µM
[14]; read-out: 50% lethal concentration (LC50)
  CC50: 8.55 µM
[15]
  GI50: 1.67 µM
  Total growth inhibition (TGI): 3.6 µM
  CC50: 7.77 µM
[16]
  GI50: 1.43 µM
  Total growth inhibition (TGI): 2.78 µM
  CC50: 5.39 µM
[17]
  GI50: 1.15 µM
  Total growth inhibition (TGI): 5.09 µM
  CC50: 24.4 µM
[18]
  GI50: 1.54 µM
  Total growth inhibition (TGI): 3.17 µM
  CC50: 6.51 µM
[19]
  GI50: 1.57 µM
  Total growth inhibition (TGI): 3.08 µM
[20]
  GI50: 1.54 µM
  Total growth inhibition (TGI): 2.89 µM
  CC50: 5.41 µM
[21]
  GI50: 1.37 µM
  Total growth inhibition (TGI): 2.99 µM
  CC50: 6.52 µM
[22]
  GI50: 2.3 µM
  Total growth inhibition (TGI): 5.59 µM
  CC50: > 100 µM
[23]
  GI50: 2.63 µM
  Total growth inhibition (TGI): 11.3 µM
  CC50: 39.2 µM
[24]
  GI50: 1.52 µM
  Total growth inhibition (TGI): 2.87 µM
  CC50: 5.41 µM
[25]
  GI50: 1.26 µM
  Total growth inhibition (TGI): 2.64 µM
  CC50: 5.54 µM
[26]
  GI50: 0.89 µM
  Total growth inhibition (TGI): 2.2 µM
  CC50: 4.98 µM
[27]
  GI50: 1.98 µM
  Total growth inhibition (TGI): 5.94 µM
  CC50: 65.1 µM
[28]
  GI50: 1.22 µM
  Total growth inhibition (TGI): 2.54 µM
  CC50: 5.25 µM
[29]
  GI50: 1.46 µM
  Total growth inhibition (TGI): > 100 µM
  CC50: > 100 µM
[30]
  GI50: 1.47 µM
  Total growth inhibition (TGI): 2.98 µM
  CC50: 60.1 µM
[31]
  GI50: 1.86 µM
  Total growth inhibition (TGI): 4.88 µM
  CC50: > 100 µM
[32]
  GI50: 1.8 µM
  Total growth inhibition (TGI): 5.02 µM
  CC50: > 100 µM
